Source: patent US20220235064A1 (WELLMARKER BIO CO., LTD., priority 2019, published 2022)
pIC50: −log10 of the molar value.

What was measured:
[1] = test system: cancer cell line KM12C, in which RON is activated; experiment: Cell growth inhibitory ability in RON-activated cancer cell line (MTS); assay type: cell-based; conditions: Homo sapiens, 48 hours, absorbance 490 nm
Procedure: Experimental Example 2: Identification of Cell Growth Inhibitory Ability of Example Compounds in RON-Activated Cancer Cell Line
The cancer cell line KM12C (80015, KCLB, MEM+1K° FBS), in which RON is activated, was treated with each of the example compounds at a concentration of 10 μM, and then reaction was allowed to proceed for 48 hours. 24 hours after completion of the reaction, 20 μl of MTS solution (CellTiter 96 Aqueous One Solution Cell Proliferation Assay, product number: G3581, Promega) was added to each well, and then incubation was performed at a temperature of 37° C. in 50 CO2 incubator for 4 hours. Then, an IC50 value of the compound was derived by measuring its absorbance value at a wavelength of 490 nm using a Victor X5 plate reader. Here, as a positive control, N-(4-(2-amino-3-chloropyridin-4-yloxy)-3-fluorophenyl)-4-ethoxy-1-(4-fluorophenyl)-2-oxo-1,2-dihydropyridine-3-carboxamide, which is the compound of Example 1 in WO 2008/058229 A1, was used.

[2] = test system: cancer cell line KM12C, in which RON is activated; experiment: Cell-killing efficacy in RON-activated cancer cell line (trypan blue); assay type: cell-based; conditions: Homo sapiens, 48 hours, trypan blue, n=2, read-out: Cell death (%) Cancer cell line KM12C
Procedure: Experimental Example 3: Measurement of Cell-Killing Efficacy of Example Compounds in RON-Activated Cancer Cell Line
The cancer cell line KM12C (80015, KCLB, MEM+10% FBS), in which RON is activated, was dispensed into each 60 mm^2 dish at 1×10^5 cells. After 24 hours, the dish was treated with each of the example compounds at a concentration of 1 μM or 5 μM while performing medium exchange, and then reaction was allowed to proceed for 48 hours. After 48 hours, centrifugation was performed for 4 minutes at 1,500 rpm to collect cells and cell fluid. Thereafter, living cells and dead cells were quantified (n=2) using a trypan blue solution (15250-061, Gibco), and statistical analysis was performed using Excel-T-test. Here, as a negative control, only a solvent (0.100 DMSO) was used; and as a positive control, N-(4-(2-amino-3-chloropyridin-4-yloxy)-3-fluorophenyl)-4-ethoxy-1-(4-fluorophenyl)-2-oxo-1,2-dihydropyridine-3-carboxamide, which is the compound of Example 1 in WO 2008/058229 A1, was used.

| pIC50 [1] | Compound | cytotoxicity at 1 µM [2] | cytotoxicity at 5 µM [2] |
| --- | --- | --- | --- |
| 8.52 | O=C(Nc1ccc(Oc2ccnc3cc(-c4ccc(CN5CCC(F)(F)C5)cn4)sc23)c(F)c1)c1c2c(cn(-c3ccc(F)cc3)c1=O)CCO2 [Example 28, N-(4-((2-(5-((3,3-Difluoropyrrolidin-1-yl)methyl)pyridin-2-yl)thieno[3,2-b]pyridine-7-yl)oxy)-3-fluorophenyl)-5-(4-fluorophenyl)-6-oxo-2,3,5,6-tetrahydrofuro[3,2-c]pyridine-7-carboxamide] | 9.6% | 10.3% |
| 8.22 | COC1CCCN(Cc2ccc(-c3cc4nccc(Oc5ccc(NC(=O)c6c7c(cn(-c8ccc(F)cc8)c6=O)CCO7)cc5F)c4s3)nc2)C1 (stereo not drawn) [Example 32, N-(3-Fluoro-4-((2-(5-((3-methoxypiperidin-1-yl)methyl)pyridin-2-yl)thieno[3,2-b]pyridin-7-yl)oxy)phenyl)-5-(4-fluorophenyl)-6-oxo-2,3,5,6-tetrahydrofuro[3,2-c]pyridine-7-carboxamide] | 13.5% | 20.4% |
| 8.40 | O=C(Nc1ccc(Oc2ccnc3cc(-c4ccc(CN5CCC(F)(F)CC5)cn4)sc23)c(F)c1)c1c2c(cn(-c3ccc(F)cc3)c1=O)CCO2 [Example 35, N-(4-((2-(5-((4,4-Difluoropiperidin-1-yl)methyl)pyridin-2-yl)thieno[3,2-b]pyridine-7-yl)oxy)-3-fluorophenyl)-5-(4-fluorophenyl)-6-oxo-2,3,5,6-tetrahydrofuro[3,2-c]pyridine-7-carboxamide] | 19.6% | 28.1% |
| 8.52 | COc1cc2c(Oc3ccc(NC(=O)c4c5c(cn(-c6ccc(F)cc6)c4=O)CCO5)cc3F)ccnc2cc1OCCCN1CC(C#N)C1 [Example 88, N-(4-((7-(3-(3-Cyanoazetidin-1-yl)propoxy)-6-methoxyquinolin-4-yl)oxy)-3-fluorophenyl)-5-(4-fluorophenyl)-6-oxo-2,3,5,6-tetrahydrofuro[3,2-c]pyridine-7-carboxamide] | 18.8% | 24.7% |
| 7.30 | COc1cc2c(Oc3ccc(NC(=O)c4c5c(cn(-c6ccc(F)cc6)c4=O)CCO5)cc3F)ccnc2cc1OCCCN1CCC(C)(O)C1 (stereo not drawn) [Example 91, N-(3-Fluoro-4-((7-(3-(3-hydroxy-3-methylpyrrolidin-1-yl)propoxy)-6-methoxyquinoline-4-yl)oxy)phenyl)-5-(4-fluorophenyl)-6-oxo-2,3,5,6-tetrahydrofuro[3,2-c]pyridine-7-carboxamide] | 12.7% | 14.3% |
| 8.30 | COc1cc2c(Oc3ccc(NC(=O)c4c5c(cn(-c6ccc(F)cc6)c4=O)CCO5)cc3F)ccnc2cc1OCCCN1CCC(F)(F)C1 [Example 95, N-(4-((7-(3-(3,3-Difluoropyrrolidin-1-yl)propoxy)-6-methoxyquinolin-4-yl)oxy)-3-fluorophenyl)-5-(4-fluorophenyl)-6-oxo-2,3,5,6-tetrahydrofuro[3,2-c]pyridine-7-carboxamide] | 19.6% | 25.6% |
| 9.00 | COc1cc2c(Oc3ccc(NC(=O)c4c5c(cn(-c6ccc(F)cc6)c4=O)CCO5)cc3F)ccnc2cc1OCCCN1CCS(=O)(=O)CC1 [Example 102, N-(4-((7-(3-(1,1-Dioxidothiomorpholino)propoxy)-6-methoxyquinolin-4-yl)oxy)-3-fluorophenyl)-5-(4-fluorophenyl)-6-oxo-2,3,5,6-tetrahydrofuro[3,2-c]pyridine-7-carboxamide] | 23.4% | 29.7% |
| 8.70 | COc1cc2c(Oc3ccc(NC(=O)c4c5c(cn(-c6ccc(F)cc6)c4=O)CCO5)cc3F)ccnc2cc1OCCN1CCC(C)(O)CC1 [Example 137, N-(3-Fluoro-4-((7-(2-(4-hydroxy-4-methylpiperidin-1-yl)ethoxy)-6-methoxyquinoline-4-yl)oxy)phenyl)-5-(4-fluorophenyl)-6-oxo-2,3,5,6-tetrahydrofuro[3,2-c]pyridine-7-carboxamide] | 18.2% | 22.4% |

The next lines start with the molecule.

| Compound | pIC50 [1] | cytotoxicity at 1 µM [2] | cytotoxicity at 5 µM [2] |
| --- | --- | --- | --- |
| O=C(Nc1ccc(Oc2ccnc3cc(-c4ccc(CN5CCC(F)C5)cn4)sc23)c(F)c1)c1c2c(cn(-c3ccc(F)cc3)c1=O)CCO2 (stereo not drawn) [Example 27, N-(3-Fluoro-4-((2-(5-((3-fluoropyrrolidin-1-yl)methyl)pyridin-2-yl)thieno[3,2-b]pyridin-7-yl)oxy)phenyl)-5-(4-fluorophenyl)-6-oxo-2,3,5,6-tetrahydrofuro[3,2-c]pyridine-7-carboxamide] | 8.70 | 17.3% | 29% |
| O=C(Nc1ccc(Oc2ccnc3cc(-c4ccc(CN5CCC(O)CC5)cn4)sc23)c(F)c1)c1c2c(cn(-c3ccc(F)cc3)c1=O)CCO2 [Example 29, N-(3-Fluoro-4-((2-(5-((4-hydroxypiperidin-1-yl)methyl)pyridin-2-yl)thieno[3,2-b]pyridin-7-yl)oxy)phenyl)-5-(4-fluorophenyl)-6-oxo-2,3,5,6-tetrahydrofuro[3,2-c]pyridine-7-carboxamide] | 9.00 | 22.6% | 24.5% |
| O=C(Nc1ccc(Oc2ccnc3cc(-c4ccc(CN5CCCC(O)C5)cn4)sc23)c(F)c1)c1c2c(cn(-c3ccc(F)cc3)c1=O)CCO2 (stereo not drawn) [Example 30, N-(3-Fluoro-4-((2-(5-((3-hydroxypiperidin-1-yl)methyl)pyridin-2-yl)thieno[3,2-b]pyridin-7-yl)oxy)phenyl)-5-(4-fluorophenyl)-6-oxo-2,3,5,6-tetrahydrofuro[3,2-c]pyridine-7-carboxamide] | 9.00 | 24.8% | 25.9% |
| O=C(Nc1ccc(Oc2ccnc3cc(-c4ccc(CN5CCC(F)CC5)cn4)sc23)c(F)c1)c1c2c(cn(-c3ccc(F)cc3)c1=O)CCO2 [Example 34, N-(3-Fluoro-4-((2-(5-((4-fluoropiperidin-1-yl)methyl)pyridin-2-yl)thieno[3,2-b]pyridin-7-yl)oxy)phenyl)-5-(4-fluorophenyl)-6-oxo-2,3,5,6-tetrahydrofuro[3,2-c]pyridine-7-carboxamide] | 8.52 | 13.7% | 15.9% |
| CC1CCN(Cc2ccc(-c3cc4nccc(Oc5ccc(NC(=O)c6c7c(cn(-c8ccc(F)cc8)c6=O)CCO7)cc5F)c4s3)nc2)CC1 [Example 36, N-(3-Fluoro-4-((2-(5-((4-methylpiperidin-1-yl)methyl)pyridin-2-yl)thieno[3,2-b]pyridin-7-yl)oxy)phenyl)-5-(4-fluorophenyl)-6-oxo-2,3,5,6-tetrahydrofuro[3,2-c]pyridine-7-carboxamide] | 8.30 | 17.1% | 30% |
